Measured values taken from the NIST ThermoML archive (doi:10.1016/j.fluid.2012.09.019).
± gives the expanded uncertainty stated by the source.

Columns and labels:
[1] = refractive index (Na D-line) (dimensionless); details: 298.15 K; 101.33 kPa; Liquid; Standard Abbe refractometry
[2] = 298.15 K; 101.33 kPa; Liquid; Vibrating tube method

## Cc1ccccc1C [1,2-dimethylbenzene]
[1]
  refractive index: 1.4945 ± 0.0008
[2]
  mass density: 859.54 ± 0.14 kg/m3

## Cc1cccc(C)c1 [1,3-dimethylbenzene]
[1]
  refractive index: 1.4946 ± 0.0008
[2]
  mass density: 859.95 ± 0.14 kg/m3

## Cc1ccc(C)cc1 [1,4-dimethylbenzene]
[1]
  refractive index: 1.4957 ± 0.0008
[2]
  mass density: 856.71 ± 0.14 kg/m3

## CCCCCCCCCC [decane]
[1]
  refractive index: 1.4108 ± 0.0008
[2]
  mass density: 726.36 ± 0.17 kg/m3
